ChEMBL document CHEMBL1151652, “Constituents of Erysimum inconspicuum. Two sulfur-containing lactone compounds” (1985)
≈ marks a conversion by molar mass, not a printed value.

Test system: KB
Experiment: Cytotoxicity against human KB cells
Format: functional
Conditions: read-out: ED50 (the source's name)

| Compound | EC50 [µg/mL] |
| --- | --- |
| CS(=O)(=O)CC[C@H]1CCC(=O)O1 [ERYSULFONE] | 21 (≈ 109 µM) |
| C[S+]([O-])CC[C@H]1CCC(=O)O1 (stereo partly drawn) [ERYSULFOXIDE] | 2.3 (≈ 13.1 µM) |
| C[C@]12CC[C@H]3[C@@H](CC[C@]4(O)C[C@@H](O)CC[C@]34C=O)[C@@]1(O)CC[C@@H]2C1=CC(=O)OC1 [STROPHANTHIDIN] | 0.44 (≈ 1.09 µM) |
